Experimental data from US8129532B2, “Amino(oligo)thiophene dyes, preparation thereof, and optical methods of use” (The University of Connecticut, priority 2007, dated 2012).

Tested on: NIE-115 mouse neuroblastoma
Assay: SHG and 2PF voltage sensitivity, 50 mV step, slow switching protocol on patch-clamped neuroblastoma cell
Format: cell-based
Conditions: comparator named in the sentence (PY-1266; PY-1268)
From the text: For full details of our non-linear imaging microscope, we refer the reader to previously published descriptions. A. C. Millard, P. J. Campagnola, W. Mohler, A. Lewis, and L. M. Loew, “Second Harmonic Imaging Microscopy,” Meth. Enzymol. 361, 47-69 (2003); Millard, A. C., L. Jin, and L. M. Loew, “Second Harmonic Generation Imaging Microscopy with a High Power Ultrafast Fiber Laser,”Commercial and Biomedical Applications of Ultrafast Lasers. 5714-5716, 92-98 (2005); A. C. Millard, L. Jin, M.-D. Wei, J. P. Wuskell, A. Lewis, and L. M. Loew, “Sensitivity of Second Harmonic Generation from Styryl Dyes to Transmembrane Potential,” Biophys. J. 86, 1169-1176 (2004). Our current microscope combines a Fluoview (Olympus) scan-head and an Axiovert (Zeiss) inverted microscope constructed for multiple imaging methodologies including wide-field, one-photon excitation fluorescence imaging, as well as SHG and 2PF imaging. Our laser sources include a Mira (Coherent) Ti:sapphire laser and a Femtopower (Fianium) fiber laser operating at 1064 nm. […] Fluorescence is imaged (for linear imaging) or collected (for non-linear imaging) back through the excitation objective, while SHG is collected in the forward, transmitted light direction by a condenser, either 0.8 NA or 0.55 NA (Zeiss). […]

SMILES: CCN(CC)c1ccc(-c2ccc(/C=C/c3cc[n+](CCC[N+](CC)(CC)CC)cc3)s2)s1 [PY-1261, Di-2-BTEPPTEA]
- SHG signal sensitivity relative to another dye: more than five times larger
